According to PMC7582656, “The Hirudo Medicinalis Microbiome Is a Source of New Antimicrobial Peptides” (International Journal of Molecular Sciences, 2020):
In brackets after ≈: the same amount, converted by molar mass. Entries after “also recorded” stand apart in the source; their conditions may differ. Read-outs that look alike come from different tables or passages of the source. Where no end group is shown, it is not given here.

How the values were obtained:
B. subtilis 168HT = type: cell-based, Bacillus subtilis
Procedure: (§1) The minimum inhibitory concentration (MIC) of peptides was determined by the standard microtiter dilution method, as performed previously. Briefly, the MIC was determined by growing the microorganisms in 96-well microtitration plates in the presence of a two-fold serial dilution of the peptides. […] Mueller Hinton broth (MHB, BD Difco, Thermo Fisher Scientific Inc., Waltham, MA, USA) was used for all cultures, including Bacillus subtilis 168HT, Staphylococcus aureus ST 88, Staphylococcus haemolyticus 527 (clinical isolate), and Escherichia coli K12 substr. MG1655 strains. Each experiment was performed in triplicate with positive (melittin (Merck Company Inc., Kenilworth, NJ, USA)) and negative (without peptide) inhibition controls.

S. haemolyticus 527 = type: cell-based, Staphylococcus haemolyticus
Procedure: as §1

McCoy cells [1] = test: LIVE/DEAD viability/cytotoxicity assay, fluorescent images; type: cell-based, mouse; details: 24 h
Procedure: (§2) The cytotoxicity of peptides towards the mouse fibroblast cell line McCoy was determined via the LIVE/DEAD™ Viability/Cytotoxicity Kit (Thermo Fisher Scientific Inc., Waltham, MA, USA) according to the manufacturer′s recommendations, as performed previously. […] Melittin was used as a negative control, and McCoy cells treated without peptides were used as a positive control. After peptide exposure, cells were washed and then stained with PBS containing calcein AM and ethidium homodimer–1 at concentrations of 0.3 and 1.25 μM, respectively, for 30 min at 37 °C. After staining, the cells were washed twice with PBS. The images were captured using an epifluorescence microscope with the respective filter cubes from 10 occasionally selected fields of view captured for each well with a 20× objective. Images were captured for FITC and TRITC channels. The numbers of cells in both channels were quantified with the ImageJ software (version 1.48; RSB).

McCoy cells [2] = test: Cytotoxicity by live/dead assay and lactate dehydrogenase assay together; type: cell-based, mouse; details: 24 and 48 h, peptide at 4x MIC, live/dead fluorescence imaging and LDH assay
Procedure: We applied two techniques: Fluorescence imaging of dead and living cells (live/dead viability/cytotoxicity assay, Table 3, Figure S2) and a colorimetric assay (lactate dehydrogenase assay, Figure S3).
as §2
The cytotoxicity of peptides was also measured by a lactate dehydrogenase (LDH) assay kit (Merck Company Inc., Kenilworth, NJ, USA) according to the manufacturer′s recommendations. Briefly, 100 μL of McCoy cells per well were seeded on 96-well culture plates at a density of 2 × 10^5 cells/mL and incubated for 24 h at 37 °C with peptides at a final concentration equal to 4× MIC. Melittin was used as a negative control, and McCoy cells treated without peptides were used as a positive control. The growth medium without peptides was used as blank absorbance readings. After the peptide treatment, the plate with cells was centrifuged for 10 min at 900 g, and 50 μL of medium from each well was transferred to another plate. Fifty microlitres of the prepared LDH kit solution were added to each well. All manipulations were performed in the dark. The absorbance of the wells was measured after 15 min incubation in the dark at wavelengths of 495 and 690 nm using a Multiscan Ascent microtiter plate reader (Thermo Fisher Scientific Inc., Waltham, MA, USA). The specific absorbance of each sample was calculated according to the equation:Absorbance = A495 nm (Test) − A495 nm (Blank) − A690 nm (Test)
The percentage of cell viability was recalculated according to the control values.

S. aureus ST 88 = type: cell-based, Staphylococcus aureus
Procedure: as §1

E. coli ATCC25922 = details: ref Porto et al. [32]; cited from earlier work
Excerpt: According to numerous studies, the actions of AMPs on bacteria are diverse and appear to be dependent on the target and the peptide concentration. The speed of the antimicrobial effect of different AMPs can vary greatly.

[3] = tested on: E. coli K12 substr MG1655; type: cell-based, Escherichia coli; details: two-fold serial dilution, 96-well plates, Mueller Hinton broth, triplicate
Procedure: as §1

Compound	MIC (B. subtilis 168HT; 168HT) [µM]	MIC (S. haemolyticus 527; 527) [µM]	Cell Viability, % (McCoy cells [1]; 4 MIC) [%]	Cytotoxicity (in words) (McCoy cells [2])	MIC (S. aureus ST 88; ST 88) [µM]	Time of lytic effect (E. coli ATCC25922) [min]	MIC (B. subtilis 168HT; B. subtilis 168HT, two-fold serial dilution, 96-well plates, Mueller Hinton broth, triplicate) [µM]	MIC (S. haemolyticus 527; S. haemolyticus 527 (clinical isolate), two-fold serial dilution, 96-well plates, Mueller Hinton broth, triplicate) [µM]	MIC [3] [µM]	Cell Viability, % (McCoy cells [1]; McCoy cells, 37 °C, peptide at 4× MIC, calcein AM / ethidium homodimer-1 staining, fluorescent images, mean ± SD (n = 3)) [%]	MIC (S. aureus ST 88; S. aureus ST 88 (MRSA), two-fold serial dilution, 96-well plates, Mueller Hinton broth, triplicate) [µM]	Time to kill E. coli ATCC25922 (E. coli ATCC25922) [s]
IVKRFFRISYKLQSLKIIKGKRTFT [pept_84]	5.3	5.3	11.2 ± 7.4	reduced the cell viability to a lesser but still severe degree	>100	–	–	–	–	–	–	–
KKGKSFKQLHIIVHLVKSWLRTILTHI [pept_352]	10	10	0.2 ± 0.1	strong cytotoxicity comparable to melittin	19.9	–	–	–	–	–	–	–
FVKILAKLVNYAKN [pept_970]	19.8	>100	2.7 ± 2.1	strong cytotoxicity comparable to melittin	>100	–	–	–	–	–	–	–
FLIGKAIKRKFCLRSVWNA-NH2 [pept_1545]	7.2	–	98.7 ± 1.3	did not exert any inhibition of cell growth even after 48 h; also recorded: did not cause cell death	>100	–	–	–	–	–	–	–
guavanin 2	–	–	–	–	–	10	–	–	–	–	–	–
IGRHFKRRNSIWGICWF [pept_1303]	14.8	–	25.1 ± 8.3	reduced the cell viability to a lesser but still severe degree	>100	–	–	–	–	–	–	–
VLIRGLIHMLRGG [pept_148]	22.4	>100	98.3 ± 0.9	did not exert any inhibition of cell growth even after 48 h; also recorded: did not cause cell death	>100	–	–	–	–	–	–	–
CC[C@H](C)[C@H](NC(=O)CN)C(=O)NCC(=O)N[C@@H](C)C(=O)N[C@H](C(=O)N[C@@H](CC(C)C)C(=O)N[C@@H](CCCCN)C(=O)N[C@H](C(=O)N[C@@H](CC(C)C)C(=O)N[C@H](C(=O)N[C@H](C(=O)NCC(=O)N[C@@H](CC(C)C)C(=O)N1CCC[C@H]1C(=O)N[C@@H](C)C(=O)N[C@@H](CC(C)C)C(=O)N[C@H](C(=O)N[C@@H](CO)C(=O)N[C@@H](Cc1c[nH]c2ccccc12)C(=O)N[C@H](C(=O)N[C@@H](CCCCN)C(=O)N[C@@H](CCCNC(=N)N)C(=O)N[C@@H](CCCCN)C(=O)N[C@@H](CCCNC(=N)N)C(=O)N[C@@H](CCC(N)=O)C(=O)N[C@@H](CCC(N)=O)C(N)=O)[C@@H](C)CC)[C@@H](C)CC)[C@@H](C)O)[C@@H](C)O)C(C)C)C(C)C [Melittin, melittin, reference compound]	–	–	–	–	–	–	1.5 (≈ 4.27 µg/mL)	5.7 (≈ 16.2 µg/mL)	5.7 (≈ 16.2 µg/mL)	0.3 ± 0.1	1.5 (≈ 4.27 µg/mL)	10
